Like-named read-outs stand apart in the source and are kept apart here.
What was measured:
[1] = molecular target: T1, 5-HT1A receptor (Sus scrofa, UniProt A0A4X1UTF5); assay: radioligand binding, porcine cortical membranes, [^3H]8-OH-DPAT and [^3H]WAY 100635
T1 construct: membrane preparations from porcine cortical material; from tissue; host or cells: porcine cerebral cortex membranes
T1 sequence (A0A4X1UTF5 1-422): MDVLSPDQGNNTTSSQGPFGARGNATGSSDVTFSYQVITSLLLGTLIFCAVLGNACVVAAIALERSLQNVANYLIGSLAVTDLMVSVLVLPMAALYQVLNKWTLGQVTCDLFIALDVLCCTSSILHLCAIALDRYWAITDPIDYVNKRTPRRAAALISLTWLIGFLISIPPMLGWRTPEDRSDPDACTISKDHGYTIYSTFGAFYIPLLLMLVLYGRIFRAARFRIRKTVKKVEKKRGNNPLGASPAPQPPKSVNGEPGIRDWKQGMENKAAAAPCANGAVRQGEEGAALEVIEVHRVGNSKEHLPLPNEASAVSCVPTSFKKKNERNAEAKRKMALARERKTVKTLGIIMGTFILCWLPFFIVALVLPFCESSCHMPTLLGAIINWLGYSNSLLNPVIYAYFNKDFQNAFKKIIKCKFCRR

[2] = molecular target: T2, human D2long receptor (Homo sapiens, UniProt P14416); assay: radioligand binding with [^3H]spiperone, D2long; conditions: read-out: Ki D2lo
T2 construct: expressed in transfected cells; host or cells: Chinese hamster ovary (CHO) cells, membranes
T2 sequence (P14416 whole entry): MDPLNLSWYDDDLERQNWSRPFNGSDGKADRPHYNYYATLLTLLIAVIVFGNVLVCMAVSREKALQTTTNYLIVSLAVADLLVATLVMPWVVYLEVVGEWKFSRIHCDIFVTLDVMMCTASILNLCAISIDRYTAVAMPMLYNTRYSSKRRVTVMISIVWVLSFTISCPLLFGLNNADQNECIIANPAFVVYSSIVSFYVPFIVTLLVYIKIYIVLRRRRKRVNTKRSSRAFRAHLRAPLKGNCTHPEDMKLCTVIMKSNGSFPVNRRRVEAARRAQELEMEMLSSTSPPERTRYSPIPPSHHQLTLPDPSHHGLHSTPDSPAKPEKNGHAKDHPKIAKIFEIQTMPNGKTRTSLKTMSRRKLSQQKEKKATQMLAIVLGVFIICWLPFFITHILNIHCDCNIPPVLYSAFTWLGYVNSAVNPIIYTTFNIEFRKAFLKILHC
Method: (§1) For the determination of binding affinity to the receptors of the dopamine D2 family membranes were established carrying the human D2long, D2short, D3 or D4.4 receptor subtype expressed in Chinese hamster ovary cell lines. In principle, the binding experiments started when incubating an appropriate amount of membrane with the radioligand [^3H]spiperone and the particular test compounds diluted in a wide range of different concentrations from subnanomolar up to micromolar.

[3] = molecular target: dopamine D2short receptor (Homo sapiens, UniProt P14416); assay: [^35S]GTPγS-incorporation assay, intrinsic activity
dopamine D2short receptor, sequence (P14416 1-414 isoform P14416-2): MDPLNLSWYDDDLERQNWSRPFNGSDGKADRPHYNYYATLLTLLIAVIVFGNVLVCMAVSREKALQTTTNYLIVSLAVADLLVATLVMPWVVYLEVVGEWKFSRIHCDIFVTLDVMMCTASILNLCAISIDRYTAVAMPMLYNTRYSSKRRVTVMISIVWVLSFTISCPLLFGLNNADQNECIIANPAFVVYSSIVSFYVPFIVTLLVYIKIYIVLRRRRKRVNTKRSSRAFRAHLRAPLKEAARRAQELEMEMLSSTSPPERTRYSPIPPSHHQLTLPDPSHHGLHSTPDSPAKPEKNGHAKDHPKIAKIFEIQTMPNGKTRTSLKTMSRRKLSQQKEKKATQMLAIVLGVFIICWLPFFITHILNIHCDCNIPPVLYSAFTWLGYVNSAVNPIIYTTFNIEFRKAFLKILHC

[4] = molecular target: T3, human D2short receptor (Homo sapiens, UniProt P14416); assay: radioligand binding with [^3H]spiperone, D2short; conditions: read-out: Ki D2sh
T3 construct: expressed in transfected cells; host or cells: Chinese hamster ovary (CHO) cells, membranes
T3 sequence (P14416 1-414 isoform P14416-2): as above
Method: as §1

[5] = molecular target: T4, human D3 receptor (Homo sapiens, UniProt P35462); assay: radioligand binding with [^3H]spiperone, D3
T4 construct: expressed in transfected cells; host or cells: Chinese hamster ovary (CHO) cells, membranes
T4 sequence (P35462 whole entry): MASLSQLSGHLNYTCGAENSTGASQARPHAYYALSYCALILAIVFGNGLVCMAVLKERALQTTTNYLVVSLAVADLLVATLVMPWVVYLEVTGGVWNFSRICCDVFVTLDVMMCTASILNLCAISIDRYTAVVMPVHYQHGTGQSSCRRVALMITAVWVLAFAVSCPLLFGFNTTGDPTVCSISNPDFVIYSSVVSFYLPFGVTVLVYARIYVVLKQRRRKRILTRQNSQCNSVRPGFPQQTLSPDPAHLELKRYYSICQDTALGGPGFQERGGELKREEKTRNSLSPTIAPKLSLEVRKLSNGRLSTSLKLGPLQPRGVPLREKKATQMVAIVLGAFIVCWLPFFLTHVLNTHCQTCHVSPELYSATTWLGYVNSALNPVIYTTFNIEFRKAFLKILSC
Method: as §1

[6] = molecular target: T5, 5-HT2 receptor (Sus scrofa, UniProt P50129); assay: radioligand binding, porcine cortical membranes, [^3H]ketanserin
T5 construct: membrane preparations from porcine cortical material; from tissue; host or cells: porcine cerebral cortex membranes
T5 sequence (P50129 whole entry): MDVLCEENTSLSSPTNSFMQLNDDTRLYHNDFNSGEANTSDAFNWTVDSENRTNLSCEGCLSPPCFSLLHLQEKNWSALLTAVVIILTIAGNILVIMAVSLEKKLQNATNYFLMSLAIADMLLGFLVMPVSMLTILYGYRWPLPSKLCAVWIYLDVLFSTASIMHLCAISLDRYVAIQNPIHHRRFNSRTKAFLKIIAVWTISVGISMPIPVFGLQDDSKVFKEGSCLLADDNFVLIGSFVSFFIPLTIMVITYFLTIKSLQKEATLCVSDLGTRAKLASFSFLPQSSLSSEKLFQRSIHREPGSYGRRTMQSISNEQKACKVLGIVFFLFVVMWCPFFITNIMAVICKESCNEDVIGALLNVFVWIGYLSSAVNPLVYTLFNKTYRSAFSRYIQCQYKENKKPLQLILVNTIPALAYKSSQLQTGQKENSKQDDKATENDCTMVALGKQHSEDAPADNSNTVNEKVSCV

[7] = molecular target: T6, human D4.4 receptor (Homo sapiens, UniProt P21917); assay: radioligand binding with [^3H]spiperone, D4.4
T6 construct: expressed in transfected cells; host or cells: Chinese hamster ovary (CHO) cells, membranes
T6 sequence (P21917 1-419): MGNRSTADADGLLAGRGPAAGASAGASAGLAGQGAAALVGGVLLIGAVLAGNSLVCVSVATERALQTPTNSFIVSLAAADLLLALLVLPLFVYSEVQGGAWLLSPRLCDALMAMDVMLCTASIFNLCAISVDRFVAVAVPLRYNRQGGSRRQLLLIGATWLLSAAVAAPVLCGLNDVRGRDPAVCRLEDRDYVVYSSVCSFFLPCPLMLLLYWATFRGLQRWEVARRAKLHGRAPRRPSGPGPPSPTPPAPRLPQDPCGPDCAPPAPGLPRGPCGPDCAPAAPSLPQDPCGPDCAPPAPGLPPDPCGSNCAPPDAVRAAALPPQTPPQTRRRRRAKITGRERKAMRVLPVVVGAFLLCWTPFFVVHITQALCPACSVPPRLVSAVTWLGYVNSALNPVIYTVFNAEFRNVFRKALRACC
Method: as §1

[8] = [^3H]spiperone, CHO membranes, mean of 2 to 4 experiments
[9] = read-out: D2short: [^35S]GTPγS intrinsic activity
[10] = porcine cortical membranes, [^3H]ketanserin
[11] = read-out: D2short: [^35S]GTPγS intrinsic activity, % activity of quinpirol
[12] = ether alkylene linker compounds

SMILES	Ki ([1]; porcine cortical membranes) [nM]	Ki [2, 8] [nM]	Emax [3, 9] [%]	Ki [4, 8] [nM]	Ki [5, 8] [nM]	Ki [6, 10] [nM]	Ki [7, 8] [nM]	Emax [3, 11] [%]	Ki [2, 12] [nM]	Ki [4, 12] [nM]	Ki [1, 12] [nM]	Ki [5, 12] [nM]	Ki [6, 12] [nM]	Ki [7, 12] [nM]
COc1ccccc1N1CCN(CCCCOc2ccn3ncc(C#N)c3c2)CC1 [Example E37, 5-[4-[4-(2-Methoxyphenyl)piperazin-1-yl]butoxy]pyrazolo[1,5-a]pyridine-3-carbonitrile]	< 30	–	–	–	–	–	–	–	–	–	–	–	–	–
Clc1ccccc1N1CCN(CCCCOc2cc3ccccn3n2)CC1 [Example E3, 2-[4-[4-(2-Chlorophenyl)piperazin-1-yl]butoxy]pyrazolo[1,5-a]pyridine]	< 30	< 30	< 15	< 30	< 30	301 to 3000	30 to 300	–	–	–	–	–	–	–
COc1ccccc1N1CCN(CCCCOc2ccn3ncc(CNC(C)=O)c3c2)CC1 [Example E81]	< 30	< 30	–	< 30	< 30	301 to 3000	30 to 300	< 15	–	–	–	–	–	–
Clc1ccccc1N1CCN(CCCCOc2cccc3ccnn23)CC1 [Example E59, 7-[4-[4-(2-Chlorophenyl)piperazin-1-yl]butoxy]pyrazolo[1,5-a]pyridine]	30 to 300	30 to 300	15 to 40	30 to 300	< 30	30 to 300	< 30	–	–	–	–	–	–	–
COc1ccccc1N1CCN(CCCCOc2ccn3ncc(CO)c3c2)CC1 [Example E72]	< 30	< 30	–	< 30	< 30	301 to 3000	< 30	15 to 40	–	–	–	–	–	–
CC(=O)c1cnn2ccc(OCCCCN3CCN(c4ccccc4Cl)CC3)cc12 [Example E29, 1-(5-[4-[4-(2-Chlorophenyl)piperazin-1-yl]butoxy]pyrazolo[1,5-a]pyridine-3-yl)ethanone]	< 30	< 30	–	< 30	< 30	30 to 300	< 30	< 15	–	–	–	–	–	–
COc1ccccc1N1CCN(CCCCOc2ccn3ncc(C(C)=O)c3c2)CC1 [Example E28, 1-(5-[4-[4-(2-Methoxyphenyl)piperazin-1-yl]butoxy]pyrazolo[1,5-a]pyridine-3-yl)ethanone]	< 30	< 30	–	< 30	< 30	301 to 3000	< 30	15 to 40	–	–	–	–	–	–
COc1ccccc1N1CCN(CCCCOc2ccn3ncc(Br)c3c2)CC1 [Example E43, 3-Bromo-5-[4-[4-(2-methoxyphenyl)piperazin-1-yl]butoxy]pyrazolo[1,5-a]pyridine]	< 30	< 30	–	< 30	< 30	301 to 3000	< 30	15 to 40	4.9	3.3	10	3.5	880	3.2
CC(=O)c1cnn2ccc(OCCCCN3CCN(c4cccc(Cl)c4Cl)CC3)cc12 [Example E27, 1-(5-[4-[4-(2,3-Dichlorophenyl)piperazin-1-yl]butoxy]pyrazolo[1,5-a]pyridine-3-yl)ethanone]	< 30	< 30	–	< 30	< 30	30 to 300	< 30	< 15	–	–	–	–	–	–
ON=Cc1cnn2ccc(OCCCCN3CCN(c4cccc(Cl)c4Cl)CC3)cc12 [Example E30, (s-trans) 5-[4-[4-(2,3-Dichlorophenyl)piperazin-1-yl]butoxy]pyrazolo[1,5-a]pyridine-3-carbaldehyde oxime]	< 30	< 30	–	< 30	< 30	30 to 300	< 30	< 15	–	–	–	–	–	–
COc1ccccc1N1CCN(CCCCOc2ccn3ncc(C=NO)c3c2)CC1 [Example E31, (s-trans) 5-[4-[4-(2-Methoxyphenyl)piperazin-1-yl]butoxy]pyrazolo[1,5-a]pyridine-3-carbaldehyde oxime]	< 30	–	–	–	–	301 to 3000	–	–	–	–	–	–	–	–
